The results in this text go back to patent publication US20230331652A1, “TRANS-CYCLOOCTENES WITH HIGH REACTIVITY AND FAVORABLE PHYSIOCHEMICAL PROPERTIES” (University of Delaware, priority 2020, published 2023).

Data set [1] in a line: Storage stability of neat TCO. It counts as physicochemical. Particulars: neat versus stored in solution. The source says: The diastereoselective additions of 2 with methyl α-lithioacetate or lithioacetonitrile provided a straightforward path to introduce handles for conjugation via amide bond or ether formation. The reaction of ketone 2 with lithium bis(trimethylsilyl)amide (LiHMDS)/methyl acetate produced ester 9 in 86% yield. Similarly, the combination of 2 with LiHMDS and acetonitrile produced nitrile 10 in 98% yield. Hydrolysis of 9 with trimethyltin hydroxide followed by DIC-mediated coupling with N-hydroxysuccinimide gave NHS ester 11 in 89% yield (FIG. 3B). Alternately, using LiOH gave 11 in 46% yield after DIC coupling. Through amide coupling, 11 gave the fluorescent TAMRA-conjugate 12 with favorable physiochemical properties, and 11 was also combined with hydrazine monohydrate to give hydrazide 13 with a potential handle for aldehyde conjugation. TCO 9 also was combined with LiAlH4 to provide diol 14 in 89% yield which was next used in a Williamson ether synthesis with NaH/propargyl bromide to give 96% yield of propargyl ether 15. […] Amine 16 was synthesized by LiAlH4 reduction of TCO nitrile 10 in 93% yield to introduce an acid reactive conjugation handle. […] In summary, ketone 2 can serve as a readily prepared, central intermediate for the diastereoselective preparation of a range of hydrophilic a-TCO conjugates.

Data set [2] deals with HeLa cells. As to the kind of experiment: TAMRA-TCO comparative washout assay. It counts as cell-based. Particulars: 5 μM, 30 min incubation. The text has this: While TCO-derivatives offer rapid labeling kinetics, a consideration for labeling by fluorophore-tagged TCOs has been the background fluorescence due to non-covalent cellular binding that can be ameliorated only by extended washout times. More hydrophilic oxo- and dioxo-trans-cyclooctenes with backbone oxygens offer improvements, but are difficult to synthesize and, for dioxo-TCO, display reduced Diels-Alder kinetics. As shown in FIGS. 5A-5C, the fluorescent conjugates TAM RA-TCO, TAMRA-oxo-TCO and TAMRA-a-TCO were prepared and compared their cellular washout times to unconjugated TAMRA. Thus, HeLa cells were incubated for 30 min with TAMRA-dyes, and cells were initially washed three times with DPBS, and then cell media was exchanged after 10, 40 and 120 minutes. After each wash, cells were imaged live by fluorescence microscopy with illumination at 531 nm and fixed-intensity across all samples. Widefield images of the cells after 3 washes are shown in FIG. 5B; images after the earlier and later washings are shown in FIG. 8. Background fluorescence was quantified by dividing total fluorescence by the number of cells in each image (FIG. 5C).
HeLa cells were seeded at 5×10^3 cells per well in a poly-L-lysine (0.1 mg/mL) coated 48-well plate and allowed to grow for 48 hours in Dulbecco's modified eagle medium (DMEM, Life Technologies) supplemented with 5% FBS (Life Technologies), 1 mM L-glutamine, and 1% penicillin/streptomycin (Life Technologies). Cells were then incubated with media containing 5 μM of TAMRA-TCO, TAMRA-oxo-TCO, or TAMRA-a-TCO 12 (1 mM stock solutions in DMSO, diluted twice into media) for 30 mins at 37° C. All wells were washed three times with DPBS before adding fresh media. Cells were imaged after 2 DPBS washes and again after the 3rd DPBS wash, then incubated for additional time intervals: 10 minutes, 40 minutes, and 2 hour. At each time point, the media was removed from the designated wells and replaced with fresh media before imaging. Images were taken with an EVOS M7000 and all images were taken with the same laser power and gain. Fluorescence intensity was calculated for each sample in 3 replicates using ImageJ and the fluorescence data was normalized with the cell count of each image.

Data set [3] deals with HeLa cells transfected with either HaloTag-H2B-GFP (nucleus) or HaloTag-GAP43-GFP (cytoplasm). As to the kind of experiment: TAMRA-a-TCO permeability assay (HaloTag intracellular labeling). It counts as cell-based. Particulars: 1 μM, 30 min. Here is the method: Here, cells are transfected with a GFP-HaloTag construct fused to a protein that controls subcellular localization, and then labeled by a tetrazine-HaloTag ligand 21. Upon subsequent reaction with fluorescent TAMRA-a-TCO, conjugation is expected only in those cells that express the HaloTag fusion protein, and co-localization of GFP and TAMRA fluorescence is expected.
HeLa Cell Culture and Transfection: HeLa cells were grown in Dulbecco's modified eagle medium (DMEM, Life Technologies) supplemented with 10% (v:v) heat inactivated fetal bovine serum (Life Technologies), 2 mM I-glutamine, and 100 units/mL penicillin/streptomycin (Life Technologies) in a humidified incubator at 37° C./5% CO2. Transfection was performed with cells at 70% confluency using Lipofectamine 3000 according to the manufacturer's instructions. HeLa cells were incubated for 5 hours at 37° C./5% CO2 before being exchanged with antibiotic free growth media for 16-20 hours prior to experimental procedures. […]

Entries after “also recorded” stand apart in the source; their conditions may differ.

In the case of `C=CCC1(O)CC/C=C/CCC1` (stereo not drawn) [Compound 6, 5-eq-Allyl-5-ax-hydroxy-trans-cyclooctene], in data set [1], the storage stability result was “polymerize if not stored in solution”.

For `C#CCOCC[C@]1(O)CC/C=C/CCC1` [Compound 15, 5-ax-Hydroxy-5-eq-(2-(prop-2-yn-1-yloxy)ethyl)-trans-cyclooctene], the storage stability result in data set [1] is reported as “more stable alternative”.

Regarding `CN(C)c1ccc2c(-c3ccc(C(=O)NCCCCCNC(=O)C[C@]4(O)CC/C=C/CCC4)cc3C(=O)[O-])c3ccc(=[N+](C)C)cc-3oc2c1` [TAMRA-a-TCO, (R,E)-2-(6-(dimethylamino)-3-(dimethyliminio)-3H-xanthen-9-yl)-5-((5-(2-(1-hydroxycyclooct-4-en-1-yl)acetamido)pentyl)carbamoyl)benzoate], the “reduction in background fluorescence relative to TAMRA-TCO” value in data set [2] (after initial 3× wash) was 85%. In data set [2] (media exchanges up to 2 hours), the “background fluorescence / washout after 2 hours” value is “essentially complete”. In addition, the cell permeability entry in data set [3] (live HeLa cells, after MeTz-Halo 21 (10 μM)) was “cell permeable”. In data set [3] (nuclear (H2B) and cytoplasmic (GAP43) HaloTag targets, confocal microscopy), the “colocalization of TAMRA signal with GFP” value was “subcellular colocalization of GFP and TAMRA fluorescence; also recorded: selective colocalization of the TAMRA signal with GFP was observed”.
